Three compounds from ChEMBL document CHEMBL5096207, “Identification of a Hydroxypyrimidinone Compound (21) as a Potent APJ Receptor Agonist for the Potential Treatment of Heart Failure” (J Med Chem, 2021) can be followed below.

Data set [1] is described as follows: Oral bioavailability in overnight fasted cynomolgus monkey at 3 mg/kg measured upto 72 hrs by LC/MS/MS analysis. The class given is ADME, organism-based, Macaca fascicularis. To be noted: in vivo.
Data set [2] can be described thus: AUC (0 to 24hrs) in dog at 1 mg/kg, po or 1 mg/kg, iv by LC/MS/MS analysis. The class given is ADME, organism-based, Canis lupus familiaris. On the set-up: dose 1 mg/kg, route po. The settings on record: in vivo.
Data set [3] is described as follows: Drug excretion in Sprague-Dawley rat urine at 1 mg/kg, iv. It is filed as ADME, organism-based. To be noted: read-out: Drug excretion.
The nature of data set [4]: AUC (0 to 24hrs) in overnight fasted Sprague-Dawley rat at 1 mg/kg, po or 1 mg/kg, iv measured upto 48 hrs by LC/MS/MS analysis. To be noted: in vivo. On the set-up: time < 48 hrs, dose 1 mg/kg, route po. It is filed as ADME, organism-based.
Data set [5] can be described thus: Cmax in overnight fasted Sprague-Dawley rat at 1 mg/kg, po or 1 mg/kg, iv measured upto 48 hrs by LC/MS/MS analysis. It is filed as ADME, organism-based. On the set-up: time < 48 hrs, dose 1 mg/kg, route po. The settings on record: in vivo.
Data set [6] can be described thus: Cmax in overnight fasted cynomolgus monkey at 3 mg/kg, po or 1 mg/kg, iv measured upto 72 hrs by LC/MS/MS analysis. On the set-up: time < 72 hrs, dose 3 mg/kg, route po. It is filed as ADME, organism-based, Macaca fascicularis. To be noted: in vivo.
Data set [7] is described as follows: Oral bioavailability in overnight fasted Sprague-Dawley rat at 1 mg/kg measured upto 48 hrs by LC/MS/MS analysis. The class given is ADME, organism-based. To be noted: in vivo.
Data set [8] in a line: Volume of distribution at steady state in dog at 1 mg/kg, po or 1 mg/kg, iv by LC/MS/MS analysis. The class given is ADME, organism-based, Canis lupus familiaris. The settings on record: in vivo.
Data set [9] can be described thus: Cmax in dog at 1 mg/kg, po or 1 mg/kg, iv by LC/MS/MS analysis. Also noted: dose 1 mg/kg, route po. To be noted: in vivo. The class given is ADME, organism-based, Canis lupus familiaris.
Data set [10] can be described thus: Drug excretion in dog urine at 1 mg/kg, iv. The settings on record: read-out: Drug excretion. The class given is ADME, organism-based, Canis lupus familiaris.
A short description of data set [11]: Oral bioavailability in dog at 1 mg/kg by LC/MS/MS analysis. It is filed as ADME, organism-based, Canis lupus familiaris. The settings on record: in vivo.
The nature of data set [12]: AUC (0 to 24hrs) in overnight fasted cynomolgus monkey at 3 mg/kg, po or 1 mg/kg, iv measured upto 72 hrs by LC/MS/MS analysis. The settings on record: in vivo. On the set-up: time < 72 hrs, dose 3 mg/kg, route po. The class given is ADME, organism-based, Macaca fascicularis.
A short description of data set [13]: Volume of distribution at steady state in overnight fasted cynomolgus monkey at 3 mg/kg, po or 1 mg/kg, iv measured upto 72 hrs by LC/MS/MS analysis. It is filed as ADME, organism-based, Macaca fascicularis. To be noted: in vivo.
The nature of data set [14]: Toxicity in Sprague-Dawley rat assessed as hemodynamic reponse by measuring increase in heart rate at 0.001 to 0.1 mg/kg/min, iv infusion administered for 15 mins by PV-loop based analysis. The class given is organism-based. The settings on record: in vivo, dose 0.001-0.1 mg/kg/min.
The nature of data set [15]: Volume of distribution in overnight fasted Sprague-Dawley rat at 1 mg/kg, po or 1 mg/kg, iv measured upto 48 hrs by LC/MS/MS analysis. The settings on record: in vivo. The class given is ADME, organism-based.
The next data set has as its target T1, Apelin receptor (Homo sapiens, UniProt P35414).
T1 sequence (P35414 whole entry): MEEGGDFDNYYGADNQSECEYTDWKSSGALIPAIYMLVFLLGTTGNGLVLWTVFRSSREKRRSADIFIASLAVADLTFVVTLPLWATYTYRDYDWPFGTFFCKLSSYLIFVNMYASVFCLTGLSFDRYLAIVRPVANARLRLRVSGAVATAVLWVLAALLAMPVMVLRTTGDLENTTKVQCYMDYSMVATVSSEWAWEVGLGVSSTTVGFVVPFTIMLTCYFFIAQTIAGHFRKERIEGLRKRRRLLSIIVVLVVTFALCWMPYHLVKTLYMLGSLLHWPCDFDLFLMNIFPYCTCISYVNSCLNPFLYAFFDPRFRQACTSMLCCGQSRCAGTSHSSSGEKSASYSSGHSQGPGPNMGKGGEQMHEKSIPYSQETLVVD
The data set is described as follows: Agonist activity at human APJ expressed in HEK293 cells assessed as inhibition of forskolin-stimulated cAMP production incubated for 60 mins by fluorescence based analysis.

For orientation: bioavailability means the share of a dose that reaches the circulation, judged against a reference dose that is usually intravenous. As usually defined, the AUC(0-t) is exposure summed from dosing to a finite time, without extrapolation to infinity. Broadly, the Cmax is the maximum level reached in the sampled fluid or tissue. Consider `CCc1cccc(CC)c1-n1c(-c2ccn(C)n2)nc(=O)c(C(=O)N2CC[C@@H](c3ncc(Cl)cc3F)C2)c1O`, for which the bioavailability in data set [1] was determined as 27%; in data set [7], 54%; in [11] it was 76%. For the same compound, the AUC(0-t) in data set [2] came out at 14.2 µM·h. Moreover, the dose excreted in data set [3] was 4%; in data set [10], less than 4%. For the same compound, the AUC(0-t) at 48 h in data set [4] was 3.7 µM·h. The Cmax in data set [5] was found to be 2200 nM; in [6] it was 1400 nM; in data set [9], 6500 nM. For the same compound, the Vdss in data set [8] was 0.2 L/kg; in data set [13] it was 0.2 L/kg; in data set [15], 1.6 L/kg. For the same compound, in data set [12], the AUC(0-t) at 72 h is 2.5 µM·h. For the same compound, the Activity entry in [14] was “Non-Toxic”.

Turning to `CC(CCc1ccc(O)cc1)NCCc1ccc(O)c(O)c1` (configuration not stated) [DOBUTAMINE], the Activity entry in data set [14] is “Toxic”.

By EC50 is commonly meant the concentration giving half of the maximal effect. With `CCOCc1nc(=O)c(C(=O)N2CC[C@H](c3ccccc3)C2)c(O)n1-c1c(OC)cccc1OC`, the EC50 on Apelin receptor came to 0.4 nM.
